Assay results published in patent US12662489B2 (Sitryx Therapeutics Limited, priority 2023, dated 2026).

Assays:
[1] = biological target: T1, MTHFD1 recombinant human enzyme (Homo sapiens, UniProt P11586); assay: MTHFD1 inhibition assay (NAD(P)H-Glo luminescence); conditions: MTHFD1 IC50, recombinant human enzyme 200 nM, NADP, band
T1 sequence (P11586 2-291 limits assumed): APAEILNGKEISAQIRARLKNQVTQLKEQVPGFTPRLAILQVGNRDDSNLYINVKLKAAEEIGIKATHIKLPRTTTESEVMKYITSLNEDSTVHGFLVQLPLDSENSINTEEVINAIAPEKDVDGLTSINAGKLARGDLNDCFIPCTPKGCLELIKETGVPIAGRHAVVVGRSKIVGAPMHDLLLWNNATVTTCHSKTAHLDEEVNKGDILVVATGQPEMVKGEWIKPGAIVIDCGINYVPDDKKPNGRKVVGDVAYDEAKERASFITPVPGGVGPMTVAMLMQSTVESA

[2] = biological target: T2, MTHFD2 recombinant human enzyme (Homo sapiens, UniProt P13995); assay: MTHFD2 inhibition assay (NAD(P)H-Glo luminescence); conditions: for MTHFD1/MTHFD2 IC50 ratio: selectivity of MTHFD2 inhibition over MTHFD1, band
T2 sequence (P13995 36-350): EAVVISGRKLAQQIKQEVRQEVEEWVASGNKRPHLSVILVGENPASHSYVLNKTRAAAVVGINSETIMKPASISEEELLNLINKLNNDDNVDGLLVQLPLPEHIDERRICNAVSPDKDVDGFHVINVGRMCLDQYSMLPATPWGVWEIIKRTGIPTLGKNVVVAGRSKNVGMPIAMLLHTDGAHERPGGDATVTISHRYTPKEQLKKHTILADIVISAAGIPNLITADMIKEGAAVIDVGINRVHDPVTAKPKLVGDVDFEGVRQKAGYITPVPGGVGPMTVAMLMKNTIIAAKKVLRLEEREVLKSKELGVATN

Row | Compound | IC50 [1] | IC50 [2] | MTHFD1/MTHFD2 IC50 ratio [2]
1 | COC[C@H]1CN(c2cc(C)c3c4c(c(=O)oc3c2C)CN(C(=O)c2ccc(C(=O)NS(=O)(=O)N(C)C)c(OC3CCC(F)(F)CC3)c2F)CC4)CCN1C [Example 85, (R)-2-((4,4-difluorocyclohexyl)oxy)-N-(N,N-dimethylsulfamoyl)-3-fluoro-4-(8-(3-(methoxymethyl)-4-methylpiperazin-1-yl)-7,10-dimethyl-5-oxo-1,3,4,5-tetrahydro-2H-chromeno[3,4-c]pyridine-3-carbonyl)benzamide] | 1 to 10 nM | 1 to 10 nM | F (<3)
2 | COC[C@H]1CN(c2cc(C)c3c4c(c(=O)oc3c2C)CN(C(=O)c2ccc(C(=O)NS(=O)(=O)C3(C)CC3)c(OC3CCC(F)(F)CC3)c2F)CC4)CCN1C [Example 86, (R)-2-((4,4-difluorocyclohexyl)oxy)-3-fluoro-4-(8-(3-(methoxymethyl)-4-methylpiperazin-1-yl)-7,10-dimethyl-5-oxo-1,3,4,5-tetrahydro-2H-chromeno[3,4-c]pyridine-3-carbonyl)-N-((1-methylcyclopropyl)sulfonyl)benzamide] | 10 to 100 nM | 10 to 100 nM | F (<3)
3 | COC[C@H]1CN(c2cc(C)c3c4c(c(=O)oc3c2C)CN(C(=O)c2ccc(C(=O)NS(=O)(=O)C3(C)CC3)c(N3CCC(C)(C)C3)c2)CC4)CCN1C [Example 87, (R)-2-(3,3-dimethylpyrrolidin-1-yl)-4-(8-(3-(methoxymethyl)-4-methylpiperazin-1-yl)-7,10-dimethyl-5-oxo-1,3,4,5-tetrahydro-2H-chromeno[3,4-c]pyridine-3-carbonyl)-N-((1-methylcyclopropyl)sulfonyl)benzamide] | 10 to 100 nM | 1 to 10 nM | G (^ 3 to 9.0)
4 | COC[C@H]1CN(c2cc(C)c3c4c(c(=O)oc3c2C)CN(C(=O)c2ccc(C(=O)NS(=O)(=O)N(C)C)c(N3CCC(C)(C)C3)c2)CC4)CCN1C [Example 88, (R)-2-(3,3-dimethylpyrrolidin-1-yl)-N-(N,N-dimethylsulfamoyl)-4-(8-(3-(methoxymethyl)-4-methylpiperazin-1-yl)-7,10-dimethyl-5-oxo-1,3,4,5-tetrahydro-2H-chromeno[3,4-c]pyridine-3-carbonyl)benzamide] | 1 to 10 nM | 1 to 10 nM | F (<3)
5 | COC[C@H]1CN(c2cc(C)c3c4c(c(=O)oc3c2C)CN(C(=O)c2ccc(C(=O)NS(=O)(=O)N(C)C)c(N3CCC3)c2)CC4)CCN1C [Example 89, (R)-2-(azetidin-1-yl)-N-(N,N-dimethylsulfamoyl)-4-(8-(3-(methoxymethyl)-4-methylpiperazin-1-yl)-7,10-dimethyl-5-oxo-1,3,4,5-tetrahydro-2H-chromeno[3,4-c]pyridine-3-carbonyl)benzamide] | 1 to 10 nM | 1 to 10 nM | F (<3)
6 | COC[C@H]1CN(c2cc(C)c3c4c(c(=O)oc3c2C)CN(C(=O)c2ccc(C(=O)NS(=O)(=O)N(C)C)c(OC3C5CC6CC(C5)CC3C6)c2F)CC4)CCN1C (stereo partly drawn) [Example 90, 2-((adamantan-2-yl)oxy)-N-(N,N-dimethylsulfamoyl)-3-fluoro-4-(8-((R)-3-(methoxymethyl)-4-methylpiperazin-1-yl)-7,10-dimethyl-5-oxo-1,3,4,5-tetrahydro-2H-chromeno[3,4-c]pyridine-3-carbonyl)benzamide] | 10 to 100 nM | 10 to 100 nM | –
7 | COC[C@H]1CN(c2cc(C)c3c4c(c(=O)oc3c2C)CN(C(=O)c2ccc(C(=O)NS(=O)(=O)C3(C)CC3)c(N3CCC3)c2)CC4)CCN1C [Example 91, (R)-2-(azetidin-1-yl)-4-(8-(3-(methoxymethyl)-4-methylpiperazin-1-yl)-7,10-dimethyl-5-oxo-1,3,4,5-tetrahydro-2H-chromeno[3,4-c]pyridine-3-carbonyl)-N-((1-methylcyclopropyl)sulfonyl)benzamide] | 1 to 10 nM | 1 to 10 nM | G (^ 3 to 9.0)
8 | COC[C@H]1CN(c2cc(C)c3c4c(c(=O)oc3c2C)CN(C(=O)c2ccc(C(=O)NS(=O)(=O)N3CCCC3)c(N3CCC(F)(F)C3)c2)CC4)CCN1C [Example 92, (R)-2-(3,3-difluoropyrrolidin-1-yl)-4-(8-(3-(methoxymethyl)-4-methylpiperazin-1-yl)-7,10-dimethyl-5-oxo-1,3,4,5-tetrahydro-2H-chromeno[3,4-c]pyridine-3-carbonyl)-N-(pyrrolidin-1-ylsulfonyl)benzamide] | 10 to 100 nM | 1 to 10 nM | H (>9.0 to 30)
9 | COC[C@H]1CN(c2cc(C)c3c4c(c(=O)oc3c2C)CN(C(=O)c2cc(OC3CCC3)c(C(=O)NS(=O)(=O)N(C)C)cc2F)CC4)CCN1C [Example 93, (R)-2-cyclobutoxy-N-(N,N-dimethylsulfamoyl)-5-fluoro-4-(8-(3-(methoxymethyl)-4-methylpiperazin-1-yl)-7,10-dimethyl-5-oxo-1,3,4,5-tetrahydro-2H-chromeno[3,4-c]pyridine-3-carbonyl)benzamide] | 10 to 100 nM | 10 to 100 nM | G (^ 3 to 9.0)
10 | COC[C@H]1CN(c2cc(C)c3c4c(c(=O)oc3c2C)CN(C(=O)c2ccc(C(=O)NS(=O)(=O)N3CCCC3)c(OC3C5CC6CC(C5)CC3C6)c2F)CC4)CCN1C (stereo partly drawn) [Example 94, 2-((adamantan-2-yl)oxy)-3-fluoro-4-(8-((R)-3-(methoxymethyl)-4-methylpiperazin-1-yl)-7,10-dimethyl-5-oxo-1,3,4,5-tetrahydro-2H-chromeno[3,4-c]pyridine-3-carbonyl)-N-(pyrrolidin-1-ylsulfonyl)benzamide] | 10 to 100 nM | 10 to 100 nM | F (<3)
11 | COC[C@H]1CN(c2cc(C)c3c4c(c(=O)oc3c2C)CN(C(=O)c2ccc(C(=O)NS(=O)(=O)N3CCCC3)c(N3CC5CC5C3)c2F)CC4)CCN1C (stereo partly drawn) [Example 95, 2-(3-azabicyclo[3.1.0]hexan-3-yl)-3-fluoro-4-(8-((R)-3-(methoxymethyl)-4-methylpiperazin-1-yl)-7,10-dimethyl-5-oxo-1,3,4,5-tetrahydro-2H-chromeno[3,4-c]pyridine-3-carbonyl)-N-(pyrrolidin-1-ylsulfonyl)benzamide] | 100 to 1000 nM | 100 to 1000 nM | F (<3)
12 | COC[C@H]1CN(c2cc(C)c3c4c(c(=O)oc3c2C)CN(C(=O)c2ccc(C(=O)NS(=O)(=O)N3CCCC3)c(N3CCCC3)c2)CC4)CCN1C [Example 96, (R)-4-(8-(3-(methoxymethyl)-4-methylpiperazin-1-yl)-7,10-dimethyl-5-oxo-1,3,4,5-tetrahydro-2H-chromeno[3,4-c]pyridine-3-carbonyl)-2-(pyrrolidin-1-yl)-N-(pyrrolidin-1-ylsulfonyl)benzamide] | 1 to 10 nM | 1 to 10 nM | G (^ 3 to 9.0)
13 | COC[C@H]1CN(c2cc(C)c3c4c(c(=O)oc3c2C)CN(C(=O)c2ccc(C(=O)NS(=O)(=O)N3CCCC3)c(N3C5CCC3CC5)c2F)CC4)CCN1C [Example 97, (R)-2-(7-azabicyclo[2.2.1]heptan-7-yl)-3-fluoro-4-(8-(3-(methoxymethyl)-4-methylpiperazin-1-yl)-7,10-dimethyl-5-oxo-1,3,4,5-tetrahydro-2H-chromeno[3,4-c]pyridine-3-carbonyl)-N-(pyrrolidin-1-ylsulfonyl)benzamide] | 10 to 100 nM | 10 to 100 nM | F (<3)
